According to paper PMC11435058, “Synthesis of New Thiazole-Privileged Chalcones as Tubulin Polymerization Inhibitors with Potential Anticancer Activities” (Pharmaceuticals, 2024):
Where two headings read alike, the source gives them in different places.

Key:
[1] = system: IGROV1; test: NCI-60 anticancer screen (SRB; single dose and five doses); settings: Homo sapiens
[2] = system: RXF 393; test: as above; settings: Homo sapiens
[3] = system: HS 578T; test: as above; settings: Homo sapiens
[4] = system: MDA-MB-468; test: as above; type: cell-based, human
Method: The methodology of the NCI anticancer screening has been described in detail elsewhere (http://www.dtp.nci.nih.gov). For detailed information, see Appendix A in the Supplementary Materials.
4.2.1. Screening of the anticancer activity against a panel of 60 cell Lines.
The methodology of the NCI anticancer screening has been described in detail elsewhere (http://www.dtp.nci.nih.gov.) Briefly, the primary anticancer assay was performed at approximately 60 human tumor cell lines panel derived from nine neoplastic diseases, in accordance with the protocol of the Drug Evaluation Branch, National Cancer Institute, Bethesda. Tested compounds were added to the culture at a single concentration (10μM) and the cultures were incubated for 48 h. End -point determinations were made with a protein binding dye, SRB. Results for each tested compound was reported as the percent of growth of the treated cells when compared to the untreated control cells. The percentage growth was evaluated spectrophotometrically versus controls not treated with test agents. […]

[5] = system: U251; test: as above; settings: Homo sapiens
[6] = system: SNB-19; test: cells; settings: Homo sapiens
[7] = system: UACC-62; test: NCI-60 anticancer screen (SRB; single dose and five doses); settings: Homo sapiens
[8] = system: M14; test: as above; settings: Homo sapiens
[9] = system: MDA-MB-231/ATCC; test: as above; settings: Homo sapiens
[10] = system: 60 human tumor cell lines panel; test: NCI-60 anticancer screen, whole panel (means and ranges over the cell lines); type: cell-based; settings: Homo sapiens, 48 h, dose of 10 μM
[11] = system: NCI-H522; test: NCI-60 anticancer screen (SRB; single dose and five doses); settings: Homo sapiens
[12] = system: SK-MEL-2; test: as above; settings: Homo sapiens
[13] = system: MALME-3M; test: as above; settings: Homo sapiens

Compound: COc1cc(/C=C/C(=O)c2sc(=S)[nH]c2C)cc(OC)c1OC [2p, (E)-1-(4-Methyl-2-Thioxo-2,3-Dihydrothiazol-5-yl)-3-(3,4,5-Trimethoxyphenyl)Prop-2-En-1-One]
- GI50 ([1]; IGROV-1): 3.31 µM
- IC50 ([1]; IGROV-1): 5.75 µM
- CC50 ([1]; IGROV-1, read-out: LC50): > 100 µM
- IC (TGI) ([1]; IGROV-1, read-out: TGI): 13.8 µM
- GI50 ([2]; RXF 393): 2.51 µM
- IC50 ([2]; RXF 393): 11.2 µM
- activity at 10 µM ([2]; RXF 393, 48 h, read-out: Growth Percentage): 30.3%
- CC50 ([2]; RXF 393, read-out: LC50): 30.9 µM
- IC (TGI) ([2]; RXF 393, read-out: TGI): 7.08 µM
- GI50 [3]: 2.88 µM
- IC50 [3]: > 100 µM
- activity at 10 µM ([3]; 48 h, read-out: Growth Percentage): 3.94%
- CC50 ([3]; read-out: LC50): > 100 µM
- IC (TGI) ([3]; read-out: TGI): 39.8 µM
- activity at 10 µM ([4]; Homo sapiens, 48 h, MDA-MB-468, dose of 10 μM, read-out: Growth Percentage): 3.79%
- IC50 ([4]; Homo sapiens, MDA-MB-468, MDA-MB-468, Breast Cancer, five dose): 5.75 µM
- GI50 ([4]; Homo sapiens, MDA-MB-468, Breast Cancer, five dose): 1.55 µM
- CC50 ([4]; Homo sapiens, MDA-MB-468, Breast Cancer, five dose, read-out: LC50 (the source's name)): 17.8 µM
- TGI ([4]; MDA-MB-468, Breast Cancer, five dose): 4.47 µM
- GI50 ([5]; U-251): 3.02 µM
- IC50 ([5]; U-251): 4.17 µM
- activity at 10 µM ([5]; U-251, 48 h, read-out: Growth Percentage): 15%
- CC50 ([5]; U-251, read-out: LC50): 43.6 µM
- IC (TGI) ([5]; U-251, read-out: TGI): 12 µM
- GI50 ([6]; SNB-19): 5.01 µM
- IC50 ([6]; SNB-19): 13.2 µM
- activity at 10 µM ([6]; SNB-19, 48 h, read-out: Growth Percentage): 19.6%
- CC50 ([6]; SNB-19, read-out: LC50): 43.6 µM
- IC (TGI) ([6]; SNB-19, read-out: TGI): 17.8 µM
- GI50 ([7]; UACC-62): 2.82 µM
- IC50 ([7]; UACC-62): 5.37 µM
- activity at 10 µM ([7]; UACC-62, 48 h, read-out: Growth Percentage): -3.11%
- IC (TGI) ([7]; UACC-62, read-out: TGI): 12.3 µM
- GI50 ([8]; M14): 3.24 µM
- IC50 ([8]; M14): 5.13 µM
- activity at 10 µM ([8]; M14, 48 h, read-out: Growth Percentage): 15.4%
- IC (TGI) ([8]; M14, read-out: TGI): 13.2 µM
- GI50 ([9]; MDA-MB-231): 3.24 µM
- IC50 ([9]; MDA-MB-231): 10 µM
- activity at 10 µM ([9]; MDA-MB-231, 48 h, read-out: Growth Percentage): 2.51%
- CC50 ([9]; MDA-MB-231, read-out: LC50): > 100 µM
- IC (TGI) ([9]; MDA-MB-231, read-out: TGI): 13.2 µM
- activity at 10 µM ([10]; mean over the tested cell lines, read-out: Mean growth percentage): 14.9%
- activity at 10 µM ([10]; range over the cell lines, read-out: growth percentages against most of the tested cells (lowest to highest)): -64.6 to 96.5%
- GI50 ([11]; NCI-H522): 3.16 µM
- IC50 ([11]; NCI-H522): 7.59 µM
- activity at 10 µM ([11]; NCI-H522, 48 h, read-out: Growth Percentage): 16.3%
- CC50 ([11]; NCI-H522, read-out: LC50): 40.7 µM
- IC (TGI) ([11]; NCI-H522, read-out: TGI): 12.3 µM
- GI50 ([12]; SK-MEL-2): 3.09 µM
- IC50 ([12]; SK-MEL-2): 11 µM
- activity at 10 µM ([12]; SK-MEL-2, 48 h, read-out: Growth Percentage): 34.9%
- CC50 ([12]; SK-MEL-2, read-out: LC50): 42.7 µM
- IC (TGI) ([12]; SK-MEL-2, read-out: TGI): 11.5 µM
- GI50 [13]: 5.75 µM
- IC50 [13]: 17.8 µM
- CC50 ([13]; read-out: LC50): 55 µM
